In patent US7033996B2, “Method for the treatment of vitamin D related disease” (University of Medicine & Dentistry of New Jersey, priority 2001, dated 2006):
“Also recorded” adds a separate entry of the source.

Key:
[1] = tested on: C/EBPβ mRNA; assay: Time course of mRNA induction by Northern blot in UMR osteoblastic cells; assay type: cell-based; settings: time course 0–24 h
[2] = tested on: C/EBPβ; assay: Northern analysis verifying C/EBPβ induction in kidney and osteoblastic cells; assay type: cell-based
[3] = tested on: C/EBPβ protein; assay: Western blot of C/EBPβ protein in primary murine osteoblasts; assay type: cell-based
Excerpt: Induction of C/EBPβ protein is examined by Western blot using nuclear extracts (antibody from Santa Cruz).

[4] = tested on: 24(OH)ase mRNA; assay: Time course of mRNA induction by Northern blot in UMR osteoblastic cells; assay type: cell-based; settings: time course 0–24 h
[5] = tested on: rat 24(OH)ase promoter; assay: 1,25(OH)2D3 induced 24(OH)ase promoter transcription with cotransfected C/EBPβ; settings: COS cells cotransfected with hVDR and C/EBPβ, 1,25(OH)2D3 for 24 h
[6] = tested on: hVDR promoter; assay: PKA mediated hVDR promoter (-1500/+60) luciferase transcription with cotransfected C/EBPβ; assay type: cell-based, human; settings: JEG cells, 2 μg VDR promoter, 1 μg PKA expression vector, 5 μg C/EBPβ
Experimental: FIG. 2 is an illustration of C/EBPβ enhancement of PKA mediated transcriptional activation of hVDR. 2 μg of the VDR promoter (−1500/+60) cotransfected in JEG cells with 1 μg of PKA expression vector in the presence or absence of 5 μg C/EBPβ.
cAMP or PTH induced enhancement of 24(OH)ase transcription is due at least in part to an upregulation of VDR. Since two putative C/EBPβ sites have been reported in the hVDR promoter (at −1490 and at −920; 143) the determination of the effect of C/EBPβ on VDR promoter activity is important. We have isolated the hVDR promoter fragment −1500/+60 by PCR and ligated it into the PGL-2 luciferase vector and found in our studies that C/EBPβ enhances PKA mediated transcription of the VDR (FIG. 2).

| effect of C/EBPβ on PKA mediated transcription of the VDR [6] | Molecule | first significant induction of C/EBPβ mRNA after treatment [1] [h] | induction of C/EBPβ by Northern analysis [2] | induction of C/EBPβ protein by Western blot [3] | first significant induction of 24(OH)ase mRNA after treatment [4] [h] | effect of C/EBPβ on 1,25(OH)2D3 induced 24(OH)ase transcription [5] |
| --- | --- | --- | --- | --- | --- | --- |
| – | C=C1/C(=C\C=C2/CCC[C@]3(C)[C@@H]([C@H](C)CCCC(C)(C)O)CC[C@@H]23)C[C@@H](O)C[C@@H]1O [1,25(OH)2D3, 1,25-dihydroxyvitamin D3] | 3 | induction | induction | 9 | – |
| enhances | C/EBPβ: CCAATT enhancer binding protein β, a transcription factor, supplied by pMEX C/EBPβ expression vector (protein, listed as Homo sapiens) APAPAPASSGQHHDFLSDLFSDDYGGKNCKKPAEYGYVSLGRLGAAKGAHPPPPPPPPPAELKAEPGFEPADCKRKEEAGAPGGGAGMAAGFPYALRAGSSGSLSTSSSSSPPGTPSPADAKAPPTACYAGAGPAPSQVKSKAKKTVRRERNNIAVRKSRDKAKMRNLETQHKVLELTAENERLQKKVEQLSRELSPEPLLASSGHC | – | – | – | – | markedly enhanced; also recorded: enhanced transcriptional response |
